Patent US5882851A, “Cytochrome P-450 monooxygenases” (Novartis Finance Corporation, priority 1993, dated 1999)
≈ marks a conversion by molar mass, not a printed value. Where two headings read alike, the source gives them in different places. Blank lines part the entries; values can stand above or below the compound they belong to.

Assays:
[1] = target: T1, P-450TYR expressed in E. coli (Sorghum bicolor, UniProt Q43135); test: Substrate binding spectra of P-450TYR expressed in E. coli
T1 construct: in which the 35 N-terminal amino acids are replaced by the nine N-terminal amino acids from bovine 17α hydroxylase; nine N-terminal amino acids from bovine 17alpha-hydroxylase (replace the 35 N-terminal residues) (N); made in house; host or cells: E. coli JM109, vector pSP19g10L
T1 sequence (Q43135 other isoform, or with tags, fused parts or gaps): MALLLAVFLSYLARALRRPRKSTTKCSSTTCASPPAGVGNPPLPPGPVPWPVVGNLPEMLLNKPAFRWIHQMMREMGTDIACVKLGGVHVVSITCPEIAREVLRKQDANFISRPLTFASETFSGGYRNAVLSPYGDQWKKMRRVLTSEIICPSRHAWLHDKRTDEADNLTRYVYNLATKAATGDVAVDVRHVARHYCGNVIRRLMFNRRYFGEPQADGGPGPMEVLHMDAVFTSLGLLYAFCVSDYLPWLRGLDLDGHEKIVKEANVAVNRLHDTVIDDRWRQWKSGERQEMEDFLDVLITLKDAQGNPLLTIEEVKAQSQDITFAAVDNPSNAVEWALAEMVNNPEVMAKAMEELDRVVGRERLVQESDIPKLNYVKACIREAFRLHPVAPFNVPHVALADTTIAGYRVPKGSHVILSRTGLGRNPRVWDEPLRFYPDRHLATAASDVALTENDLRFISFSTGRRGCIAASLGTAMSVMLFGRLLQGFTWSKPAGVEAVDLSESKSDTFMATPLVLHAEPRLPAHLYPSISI
From the text: (§1) Cytochrome P-450TYR in the oxidized state has a strong absorption peak at 420 nm, representing the low spin state of the iron of the heme group. The binding of a ligand to the heme group shifts the absorption maximum by changing the spin state of the iron. Binding of tyrosine at the catalytic site of cytochrome P-450TYR induces a change of the spin state of the oxidized iron from low to high spin, and thereby changes the absorption maximum from 420 nm to 390 nm producing a type I spectrum (Jefcoate, Methods in Enzymology 52:258-279, 1978). The following experimental procedure is used to obtain the substrate binding spectrum: two identical cuvettes containing a buffered solution of the isolated cytochrome P-450 are prepared. The substrate of the enzyme is added to the sample cuvette whereas the same volume of buffer is added to the other cuvette. The difference spectrum is then recorded in an SLM-Aminco DW2c spectrophotometer. The absorption difference, A390-420, is proportional to the concentration of cytochrome P-450TYR with a bound substrate at its active site. If a saturating concentration of substrate is added to the sample cuvette, the absorption difference is proportional to the concentration of the substrate specific cytochrome P-450 in the cuvettes. The saturating concentration of the substrate is determined by titrating the cytochrome P-450 sample with increasing amounts of substrate and monitoring A390-420.
A modified cytocrome P-450TYR, in which the 35 N-terminal amino acids are replaced by the nine N-terminal amino acids from bovine 17α hydroxylase is introduced into the expression vector pSP19g10L which can be obtained from Dr. Henry Barnes (La Jolla, Calif.). This plasmid contains the lac Z promoter fused with the known short leader sequence (g10L) of gene 10 from bacteriophage T7 (Olin et al, 1988). A construct containing the N-terminal amino acids from bovine 17α hydroxylase and a truncated form of the P-450TYR gene is designed using PCR mutagenesis: Oligonucleotide TYROL 1d (5'-CGGGATCCATATGGCTCTGTTATTAGCAGTTTTTCTGTCGTACCTGGCCCG-3'; SEQ ID NO 23) containing a 5' mutant cDNA sequence as well as a BamHI and NdeI restriction site is used together with oligonucleotide TYROL 3 comprising the sequence surrounding the unique BamHI restriction site downstream of the ATG start codon of the cDNA coding for P-450TYR to amplify a modified N-terminal sequence of P-450TYR. The amplification product is cut with NdeI and BamHI restriction enzymes. To introduce a HindIII site immediately downstream of the stop codon of the P-450TYR gene, oligonucleotides TYROL 2 and TYROL 4 are used in a polymerase chain reaction to obtain a C-terminal fragment of the P-450TYR gene comprising a HindIII restriction site immediately downstream of the stop codon. The amplification product is cut with PstI and HindIII restriction enzymes. The complete expression plasmid is constructed by simultaneous ligation of the N-terminal NdeI/BamHI fragment, the BamHI/PstI fragment of the P-450TYR gene and the C-terminal PstI/HindIII fragment into NdeI/HindIII cleaved pSP19g10L vector DNA. The expression vector obtained is transformed into E. coli strain JM109. Transformed E. coli produce 300 nmol to 500 nmol cytochrome P-450TYR per liter cell culture upon growth at 28° C. in the presence of 1 mM isopropyl-β-D-thiogalactopyranoside and at 125 rpm. Expression levels as high as 900 nmol per liter, equivalent to 55 mg P-450TYR per liter, have been obtained. […]

[2] = target: T2, cytochrome P-450TYR (Sorghum bicolor, UniProt Q43135); test: Substrate binding spectra of isolated sorghum cytochrome P-450TYR (difference spectrum A390-420)
T2 construct: from tissue; host or cells: microsomes of etiolated Sorghum bicolor seedlings, solubilised and purified by dye columns
T2 sequence (Q43135 1-558): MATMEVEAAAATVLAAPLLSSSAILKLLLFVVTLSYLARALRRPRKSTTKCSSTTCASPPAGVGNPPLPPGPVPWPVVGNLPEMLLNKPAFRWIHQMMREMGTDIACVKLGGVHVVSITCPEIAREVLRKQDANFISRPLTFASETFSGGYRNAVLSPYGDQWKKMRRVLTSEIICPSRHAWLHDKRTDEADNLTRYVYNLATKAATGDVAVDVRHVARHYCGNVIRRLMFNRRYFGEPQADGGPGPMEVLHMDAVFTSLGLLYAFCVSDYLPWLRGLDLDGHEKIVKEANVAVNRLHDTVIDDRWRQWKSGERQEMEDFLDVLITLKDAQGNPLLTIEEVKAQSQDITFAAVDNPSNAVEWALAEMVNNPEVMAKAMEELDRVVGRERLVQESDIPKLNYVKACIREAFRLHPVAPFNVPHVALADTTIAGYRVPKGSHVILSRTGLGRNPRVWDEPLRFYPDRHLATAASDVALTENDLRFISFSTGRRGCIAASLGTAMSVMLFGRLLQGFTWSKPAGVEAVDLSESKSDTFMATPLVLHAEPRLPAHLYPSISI
Description: Cytochrome P-450 substrate binding spectra are recorded with stepwise increased substrate concentration until saturating conditions are reached.
as §1, with “Binding of tyrosine at the catalytic site of cytochrome P-450TYR induces a change of the spin state of the oxidized iron from low to high spin, and thereby changes the absorption maximum from 420 nm to 390 nm producing a type I spectrum (Jefcoate, Methods in Enzymology 52:258-279, 1978).” left out
If a cytochrome P-450 sample can be saturated with two different substrates, there may be two different cytochrome P-450 enzymes in the sample, or there may be one cytochrome P-450 enzyme able to bind to both substrates. To discriminate between these possibilities, saturating amounts of the two substrates are added sequentially and the A390-420absorption change is monitored. If, independent of the order of addition, the addition of the second sample gives rise to an increased A390-420value compared to the value after the addition of the first substrate, the two substrates are bound by different enzymes. If A390-420 remains unchanged upon addition of the second substrate, independent of the order of addition, both substrates bind to the same active site, i.e. to the same cytochrome P-450 enzyme.

[3] = tested on: Western Corn Root Worm (WCRW); test: Larval mortality of Western Corn Root Worm on diet; format: in vivo, Diabrotica virgifera virgifera
From the text: Insects or insect larvae are fed on a diet containing added cyanogenic glycoside, a diet containing added cyanogenic glycoside, and callus, or a diet supplemented with the supernatant of callus ground-up in the presence of the cyanogenic glycoside. Mortality is compared to the mortality of insects or insect larvae fed on the diet only.
WCRW larvae are fed on a diet with added amygdalin, a diet with added amygdalin and Black Mexican Sweet (BMS) callus or on a diet supplemented with the supernatant of BMS-callus ground-up in the presence of amygdalin. Larval mortality is compared to the mortality of larvae fed on the diet only.
The activity of dhurrin on larval mortality of WCRW was determined as described for amygdalin in example 12.

[4] = tested on: glucosinolate production; test: Induction of glucosinolate production in Tropaeolum majus; format: in vivo
Description: Seeds of Tropaeolum majus L. cv Empress of India (Dansk Havefroforsyning, Kolding, DK) are allowed to imbibe and germinate in complete darkness for one week at 25° C. In vivo biosynthesis experiments are performed wherein 1 μCi of the tracer ^14 C-labelled phenylalanine is administered to excised dark-grown seedlings for 24 hours followed by boiling of the plant material in 90% methanol and analysis of the extracts by HPLC as described by Lykkesfeldt and Moller, 1993. Prior to administration of the tracer to the excised seedling or leaf, the intact plant is subjected to a potential inducer for 24 hours.

[5] = tested on: biosynthesis of glucosinolates; test: In vivo effect of cytochrome P450 inhibitors on glucosinolate in etiolated tropaeolum seedlings; details: 1 mM inhibitor; for effect on glucosinolate: radioactively labelled phenylalanine, etiolated tropaeolum seedlings
[6] = tested on: N[C@@H](Cc1ccc(O)cc1)C(=O)O; test: Reconstitution of cytochrome P-450TYR activity in DLPC micelles; format: biochemical, Sorghum bicolor; details: pH 7.9, 30.0 °C
From the text: Reconstitution of the enzyme activity of a microsomal P-450 enzyme is accomplished by insertion of the cytochrome P-450 enzyme and the corresponding NADPH-cytochrome P-450 oxidoreductase into appropriate lipid micelles made from different commercially available lipids. Isolation of NADPH-cytochrome P-450 oxidoreductase is done according to Halkier and Moller, Plant Physiol. 96:10-17, 1990. A mixture of lipids can be used but with cytochrome P-450TYR di-lauroyl-phosphatidyl choline (DLPC) provides the best enzymatic activity. One rate limiting factor of this rate limiting reaction is the number of correctly formed complexes of cytochrome P-450TYR and NADPH-cytochrome P-450 oxidoreductase. Excess amounts of the oxidoreductase and concentrated enzyme solutions ensure a sufficient number of active complexes.
A reconstituted enzyme is obtained using the following components:
Cytochrome P-450TYR : 100 μg/ml in 50 mM potassium phosphate buffer pH 7,9
Oxidoreductase, purified from Sorghum bicolor: 100 μg/ml in 50 mM potassium phosphate buffer pH 7,9
Lipid: 10 mg/ml di-lauroyl-phosphatidyl choline, sonicated in 50 mM potassium phosphate buffer pH 7,9
^14 C-tyrosine: commercially available from Amersham; [U-^14 C]-L-tyrosine 0.5 μCi
10 μl of the lipid suspension is mixed in a glass vial with 50 μl of the cytochrome P-450TYR (0-1.5 pmol) solution. 50 μl of the oxidoreductase (0-0.15 U) solution is added and then 10 μl tyrosine solution and 10 μl NADPH solution are added and the mixture is sonicated in a Branson 5200 sonication bath for one minute. The reaction mixture is subsequently incubated for 1 hour at 30° C. At the end of the incubation period the reaction is stopped by transferring the glass vials onto ice. Radioactively labelled intermediates formed are extracted into 50 μl ehtyl acetate, applied to a silica coated TLC plate and developed using an ethyl acetate/toluene (1:5 v/v) mixture as mobile phase. The resultant product, p-hydroxyphenylacetaldehyde oxime is visualized by autoradiography of the TLC plate. Alternatively, the intermediates are analyzed by reverse-phase HPLC coupled to a Berthold radioactiviy monitor. The HPLC separation was carried out using a nucleosil 100-10C18 column isocratically eluted with 1,5% 2-propanol in 25 mM Hepes pH 7,9 (Halkier et al, J. Biol. Chem. 264:19487-19494, 1989). Control samples may be made by omitting either cytochrome P-450 oxidoreductase or NADPH.

- molar extinction coefficient E420-390 [1]: 64.6 cm⁻¹ mM⁻¹
- initial A390-420 ([2]; 50 μl 20 mM N-hydroxytyrosine): 0,0689
- resulting A390-420 ([2]; 50 μl 20 mM N-hydroxytyrosine, dilution factor 550/500): 0,0758
- initial A390-420 ([2]; 120 μl 5 mM N-hydroxytyrosine): 0,0919
- resulting A390-420 ([2]; 120 μl 5 mM N-hydroxytyrosine, dilution factor 620/500): 0,1140
- initial A390-420 ([2]; 140 μl 5 mM N-hydroxytyrosine): 0,0911
- resulting A390-420 ([2]; 140 μl 5 mM N-hydroxytyrosine, dilution factor 640/500): 0,1166
- type of substrate binding spectrum ([2]; isolated sorghum P-450TYR): type I binding spectrum
Compound: O=C(O)[C@H](Cc1ccc(O)cc1)NO [N-hydroxytyrosine]

Compound: N#C[C@H](O[C@@H]1O[C@H](CO[C@@H]2O[C@H](CO)[C@@H](O)[C@H](O)[C@H]2O)[C@@H](O)[C@H](O)[C@H]1O)c1ccccc1 [amygdalin]
- lethality ([3]; WCRW larvae, 2 mg/ml, in the absence of BMS-callus): lethal
- lethality ([3]; WCRW larvae, concentrations of less than 1 mg/ml, BMS-callus absent): significantly less lethality
- LC50 ([3]; WCRW larvae, in the presence of BMS-callus, read-out: LC50): ~1000 µg/mL

Compound: N#C[C@@H](O[C@@H]1O[C@H](CO)[C@@H](O)[C@H](O)[C@H]1O)c1ccc(O)cc1 [dhurrin]
- LC50 [3]: 368 µg/mL (≈ 1180 µM)
- 95% confidence limits of LC50 ([3]; WCRW larvae): 0.28 to 0.48 µg/mL
- slope of the regression line ([3]; WCRW larvae): 2.5

Compound: CCO [ethanol]
- increase in glucosinolate production as compared to control experiments with water ([4]; 10 mM phenylalanine or 2% ethanol administered to the vermiculate, 24 hours, etiolated seedlings): threefold increase

Compound: CC/C=C\C[C@H]1C(=O)CC[C@@H]1CC(=O)O [jasmonic acid]
- induction of glucosinolate production ([4]; spraying with 100 μM, incubation 24 hours, etiolated seedlings and green leaves): fivefold induction

- type of substrate binding spectrum [1]: type Ispectrum
Compound: ON=CCc1ccc(O)cc1 [p-hydroxyphenylacetaldehyde oxime]

Compound: N#CCc1ccc(O)cc1 [p-hydroxyphenylacetonitrile]
- type of substrate binding spectrum [1]: type Ispectrum

Compound: Clc1ccc(N2N=NC3C4CC(C5N=NC45)C32)cc1 (centres unmarked) [tetcyclacis]
- effect on glucosinolate [5]: reduction of glucosinolate

Compound: cytochrome P-450TYR (Sorghum bicolor)
- Km ([6]; other: in the absence of added salt): 210 µM
- Km ([6]; other: in the presence of 15 mM NaCl): 140 µM

Compound: enilketoconazol
- effect on uptake of phenylalanine ([5]; measured by ethanol extraction of the plant material): without causing a reduction in the uptake of phenylalanine
- effect on glucosinolate [5]: reduction of glucosinolate
